Experimental findings from US10981980B2, “Polypeptide targeting aptamers for characterization, capture, and clinical management of circulating tumor cells” (Counterpoint Biomedica LLC, priority 2016, dated 2021) are described below.

*: point of attachment. FITC = O=C1OC2(c3ccc(O)cc3Oc3cc(O)ccc32)c2ccc(NC(=S)*)cc21; Ahx = NCCCCCC(=O)O

The first test relates to collagen-agarose beads. The test is described as follows: Collagen agarose binding assay. Conditions: loaded in PBS pH 7.4, stringent washing, 10 column volumes of 1M NaCl in PBST, FIG. 3. The source says:
FIG. 3 is a schematic and a photograph of a collagen agarose binding assay. Apt #1 is an aptamer consisting of SEQ ID NO: 1; Apt #7 is an aptamer consisting of SEQ ID NO: 7; Apt #19 is an aptamer consisting of SEQ ID NO: 19; and Apt #20 is an aptamer consisting of SEQ ID NO: 20. CBD=collagen-binding domain; CBD1=bovine vWF sequence comprising SEQ ID NO: 22; CBD2=human vWF sequence comprising SEQ ID NO: 23. […] Aptamers and reporters were mixed and loaded under mild binding conditions (PBS, pH 7.4), followed by washing with increasing concentrations of salt and/or detergent (PBST, using Tween 20). Stringent washing generally includes 10 column volumes of 1M NaCl in PBST, pH 7.4).
As to “acetyl-RRGVRVAWREPGRMELNMPHGGSGK(FITC)-amide (Ac-RRGVRVAWREPGRMELNMPHGGSGK(FITC)-NH2; SMILES CSCC[C@H](NC(=O)[C@H](CCCNC(=N)N)NC(=O)CNC(=O)[C@@H]1CCCN1C(=O)[C@H](CCC(=O)O)NC(=O)[C@H](CCCNC(=N)N)NC(=O)[C@H](Cc1c[nH]c2ccccc12)NC(=O)[C@H](C)NC(=O)[C@@H](NC(=O)[C@H](CCCNC(=N)N)NC(=O)[C@@H](NC(=O)CNC(=O)[C@H](CCCNC(=N)N)NC(=O)[C@H](CCCNC(=N)N)NC(C)=O)C(C)C)C(C)C)C(=O)N[C@@H](CCC(=O)O)C(=O)N[C@@H](CC(C)C)C(=O)N[C@@H](CC(N)=O)C(=O)N[C@@H](CCSC)C(=O)N1CCC[C@H]1C(=O)N[C@@H](Cc1c[nH]cn1)C(=O)NCC(=O)NCC(=O)N[C@@H](CO)C(=O)NCC(=O)N[C@@H](CCCCNC(=S)Nc1ccc2c(c1)C(=O)OC21c2ccc(O)cc2Oc2cc(O)ccc21)C(N)=O) [Aptamer #20]”, the “binding to collagen-agarose beads” value is on record as “bind tightly”. Take “acetyl-STRSVSSSSYRRMFGGPGTASK(FITC)-amide (Ac-STRSVSSSSYRRMFGGPGTASK(FITC)-NH2; SMILES CSCC[C@H](NC(=O)[C@H](CCCNC(=N)N)NC(=O)[C@H](CCCNC(=N)N)NC(=O)[C@H](Cc1ccc(O)cc1)NC(=O)[C@H](CO)NC(=O)[C@H](CO)NC(=O)[C@H](CO)NC(=O)[C@H](CO)NC(=O)[C@@H](NC(=O)[C@H](CO)NC(=O)[C@H](CCCNC(=N)N)NC(=O)[C@@H](NC(=O)[C@H](CO)NC(C)=O)[C@@H](C)O)C(C)C)C(=O)N[C@@H](Cc1ccccc1)C(=O)NCC(=O)NCC(=O)N1CCC[C@H]1C(=O)NCC(=O)N[C@H](C(=O)N[C@@H](C)C(=O)N[C@@H](CO)C(=O)N[C@@H](CCCCNC(=S)Nc1ccc2c(c1)C(=O)OC21c2ccc(O)cc2Oc2cc(O)ccc21)C(N)=O)[C@@H](C)O) [Aptamer #9]”: the “binding to collagen-agarose beads” value is “bind tightly”.

As for “acetyl-VNTANSTGGSGARRGVRVAWREPGRMELNMPHGGSGK(FITC)-amide (Ac-VNTANSTGGSGARRGVRVAWREPGRMELNMPHGGSGK(FITC)-NH2; SMILES CSCC[C@H](NC(=O)[C@H](CCCNC(=N)N)NC(=O)CNC(=O)[C@@H]1CCCN1C(=O)[C@H](CCC(=O)O)NC(=O)[C@H](CCCNC(=N)N)NC(=O)[C@H](Cc1c[nH]c2ccccc12)NC(=O)[C@H](C)NC(=O)[C@@H](NC(=O)[C@H](CCCNC(=N)N)NC(=O)[C@@H](NC(=O)CNC(=O)[C@H](CCCNC(=N)N)NC(=O)[C@H](CCCNC(=N)N)NC(=O)[C@H](C)NC(=O)CNC(=O)[C@H](CO)NC(=O)CNC(=O)CNC(=O)[C@@H](NC(=O)[C@H](CO)NC(=O)[C@H](CC(N)=O)NC(=O)[C@H](C)NC(=O)[C@@H](NC(=O)[C@H](CC(N)=O)NC(=O)[C@@H](NC(C)=O)C(C)C)[C@@H](C)O)[C@@H](C)O)C(C)C)C(C)C)C(=O)N[C@@H](CCC(=O)O)C(=O)N[C@@H](CC(C)C)C(=O)N[C@@H](CC(N)=O)C(=O)N[C@@H](CCSC)C(=O)N1CCC[C@H]1C(=O)N[C@@H](Cc1c[nH]cn1)C(=O)NCC(=O)NCC(=O)N[C@@H](CO)C(=O)NCC(=O)N[C@@H](CCCCNC(=S)Nc1ccc2c(c1)C(=O)OC21c2ccc(O)cc2Oc2cc(O)ccc21)C(N)=O) [Aptamer #7]”, the “binding to collagen-agarose beads” value was “bind tightly”.

A further test deals with purified recombinant His-tagged VIM (Homo sapiens, UniProt P08670). The test is described as follows: IMAC pull-down / comparative evaluation of vimentin-binding aptamers (net fluorescent signal with and without r-vimentin). Conditions: His-Tag beads, FIG. 5. An excerpt: FIG. 4 is a schematic and photograph of a IMAC Pull-down assay. The numbers 1, 2, 4, 7, 9, 11, 14, 16, 17, and 18 under the tubes correspond to aptamers consisting of SEQ ID NOs: 1, 2, 4, 7, 9, 11, 14, 16, 17, and 18, respectively. IMAC=[…]/Ni- or Metal-chelate chromatography.
Sequence of purified recombinant His-tagged VIM (P08670 whole entry): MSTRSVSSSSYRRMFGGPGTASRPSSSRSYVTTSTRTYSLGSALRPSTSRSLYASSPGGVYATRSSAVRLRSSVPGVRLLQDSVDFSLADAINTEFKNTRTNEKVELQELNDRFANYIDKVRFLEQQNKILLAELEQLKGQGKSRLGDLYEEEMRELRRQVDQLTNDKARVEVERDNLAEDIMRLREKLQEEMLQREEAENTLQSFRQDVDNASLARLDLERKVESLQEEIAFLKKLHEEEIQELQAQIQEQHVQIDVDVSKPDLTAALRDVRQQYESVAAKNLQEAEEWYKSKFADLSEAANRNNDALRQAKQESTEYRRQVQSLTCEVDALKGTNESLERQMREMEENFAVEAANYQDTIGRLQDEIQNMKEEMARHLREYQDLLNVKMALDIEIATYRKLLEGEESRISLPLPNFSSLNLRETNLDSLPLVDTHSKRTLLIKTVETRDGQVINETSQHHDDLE
FIG. 5 is a graph showing a comparative evaluation of vimentin-binding aptamers. The numbers 1, 2, 4, 7, 9, 11, 14, 16, 17, 18, 22, and 23 under the graph correspond to aptamers consisting of SEQ ID NOs: 1, 2, 4, 7, 9, 11, 14, 16, 17, 18, 49, and 51, respectively.
Aptamers containing VIM binding domains were allowed to associate with purified recombinant His-tagged VIM, followed by the addition of His-Tag beads, which were then used to concentrate the His-VIM and associated aptamers (see FIG. 4). Numbers below the tubes in FIG. 4 reading from left to right, top to bottom, correspond to aptamers that include SEQ ID NOs: 1, 2, 4, 7, 9, 11, 14, 16, 17, and 18, respectively.
The comparative binding efficiency of the aptamers was evaluated by quantifying the net fluorescent signal in the presence and absence of vimentin (e.g., r-vimentin)(see FIG. 5). Numbers 1, 2, 4, 7, 9, 11, 14, 16, 17, 18, 22, and 23 below the graph correspond to aptamers that include SEQ ID NOs: 1, […], 4, 7, […], 11, 14, 16, 17, 18, 49, and 51, respectively. VIM-binding sequences from Phage Display studies were positive.
Regarding “(FITC-Ahx)AGKKPRVTVTNVFLYNRPLNSTE-free acid ({FITC-Ahx}-AGKKPRVTVTNVFLYNRPLNSTE-OH; SMILES CC(C)C[C@H](NC(=O)[C@H](Cc1ccccc1)NC(=O)[C@@H](NC(=O)[C@H](CC(N)=O)NC(=O)[C@@H](NC(=O)[C@@H](NC(=O)[C@@H](NC(=O)[C@@H](NC(=O)[C@H](CCCNC(=N)N)NC(=O)[C@@H]1CCCN1C(=O)[C@H](CCCCN)NC(=O)[C@H](CCCCN)NC(=O)CNC(=O)[C@H](C)NC(=O)CCCCCNC(=S)Nc1ccc2c(c1)C(=O)OC21c2ccc(O)cc2Oc2cc(O)ccc21)C(C)C)[C@@H](C)O)C(C)C)[C@@H](C)O)C(C)C)C(=O)N[C@@H](Cc1ccc(O)cc1)C(=O)N[C@@H](CC(N)=O)C(=O)N[C@@H](CCCNC(=N)N)C(=O)N1CCC[C@H]1C(=O)N[C@@H](CC(C)C)C(=O)N[C@@H](CC(N)=O)C(=O)N[C@@H](CO)C(=O)N[C@H](C(=O)N[C@@H](CCC(=O)O)C(=O)O)[C@@H](C)O) [Aptamer #22]”, the “comparative binding efficiency (net fluorescent signal in the presence and absence of vimentin)” value (“comparative binding efficiency” below) is on record as “Strong binding”. On to “(FITC-Ahx)AGKKPSVTVTNVFLYNRPLNSTE-free acid ({FITC-Ahx}-AGKKPSVTVTNVFLYNRPLNSTE-OH; SMILES CC(C)C[C@H](NC(=O)[C@H](Cc1ccccc1)NC(=O)[C@@H](NC(=O)[C@H](CC(N)=O)NC(=O)[C@@H](NC(=O)[C@@H](NC(=O)[C@@H](NC(=O)[C@@H](NC(=O)[C@H](CO)NC(=O)[C@@H]1CCCN1C(=O)[C@H](CCCCN)NC(=O)[C@H](CCCCN)NC(=O)CNC(=O)[C@H](C)NC(=O)CCCCCNC(=S)Nc1ccc2c(c1)C(=O)OC21c2ccc(O)cc2Oc2cc(O)ccc21)C(C)C)[C@@H](C)O)C(C)C)[C@@H](C)O)C(C)C)C(=O)N[C@@H](Cc1ccc(O)cc1)C(=O)N[C@@H](CC(N)=O)C(=O)N[C@@H](CCCNC(=N)N)C(=O)N1CCC[C@H]1C(=O)N[C@@H](CC(C)C)C(=O)N[C@@H](CC(N)=O)C(=O)N[C@@H](CO)C(=O)N[C@H](C(=O)N[C@@H](CCC(=O)O)C(=O)O)[C@@H](C)O) [Aptamer #23]”, for which the “comparative binding efficiency” value is recorded as “Strong binding”.

As to “acetyl-TRKRIRIQRGPGRAFVTIGGK(FITC)-amide (Ac-TRKRIRIQRGPGRAFVTIGGK(FITC)-NH2; SMILES CC[C@H](C)[C@H](NC(=O)[C@H](CCCNC(=N)N)NC(=O)[C@@H](NC(=O)[C@H](CCCNC(=N)N)NC(=O)[C@H](CCCCN)NC(=O)[C@H](CCCNC(=N)N)NC(=O)[C@@H](NC(C)=O)[C@@H](C)O)[C@@H](C)CC)C(=O)N[C@@H](CCC(N)=O)C(=O)N[C@@H](CCCNC(=N)N)C(=O)NCC(=O)N1CCC[C@H]1C(=O)NCC(=O)N[C@@H](CCCNC(=N)N)C(=O)N[C@@H](C)C(=O)N[C@@H](Cc1ccccc1)C(=O)N[C@H](C(=O)N[C@H](C(=O)N[C@H](C(=O)NCC(=O)NCC(=O)N[C@@H](CCCCNC(=S)Nc1ccc2c(c1)C(=O)OC21c2ccc(O)cc2Oc2cc(O)ccc21)C(N)=O)[C@@H](C)CC)[C@@H](C)O)C(C)C) [Aptamer #17]”, the “comparative binding efficiency” value is “Strong binding”.
